Laboratory results as given in EP3011959A1, “Quaternary ammonium compound for use as an inhibitor of protein kinase C alpha” (Santen SAS, priority 2014, dated 2016).

Tests used:
Assay type in all cases: cell-based
PKC alpha = PKC alpha (Homo sapiens, UniProt P17252); test: Cellular assay of protein kinase C inhibition, PKC alpha; conditions: read-out: IC 50 PKC alpha
Method: (§1) CKC was tested on a cellular assay to evaluate the protein kinase C inhibition (PKC). Four subtypes of PKC are evaluated (α, β1, β2 and δ). Table 1. Cellular assay to evaluate the action of CKC on four subtypes of PKC.

PKC beta 2 = PKC beta 2 (Homo sapiens, UniProt P05771); test: Cellular assay of protein kinase C inhibition, PKC beta 2; parameters: key: *: IC 50 too high to be measured by apparatus
Method: as §1

PKC beta 1 = PKC beta 1 (Homo sapiens, UniProt P05771); test: Cellular assay of protein kinase C inhibition, PKC beta 1; parameters: key: *: IC 50 too high to be measured by apparatus
Method: as §1

PKC delta = PKC delta (Homo sapiens, UniProt Q05655); test: Cellular assay of protein kinase C inhibition, PKC delta; parameters: key: *: IC 50 too high to be measured by apparatus
Method: as §1

PKC beta 2, sequence (P05771 1-673 isoform P05771-2): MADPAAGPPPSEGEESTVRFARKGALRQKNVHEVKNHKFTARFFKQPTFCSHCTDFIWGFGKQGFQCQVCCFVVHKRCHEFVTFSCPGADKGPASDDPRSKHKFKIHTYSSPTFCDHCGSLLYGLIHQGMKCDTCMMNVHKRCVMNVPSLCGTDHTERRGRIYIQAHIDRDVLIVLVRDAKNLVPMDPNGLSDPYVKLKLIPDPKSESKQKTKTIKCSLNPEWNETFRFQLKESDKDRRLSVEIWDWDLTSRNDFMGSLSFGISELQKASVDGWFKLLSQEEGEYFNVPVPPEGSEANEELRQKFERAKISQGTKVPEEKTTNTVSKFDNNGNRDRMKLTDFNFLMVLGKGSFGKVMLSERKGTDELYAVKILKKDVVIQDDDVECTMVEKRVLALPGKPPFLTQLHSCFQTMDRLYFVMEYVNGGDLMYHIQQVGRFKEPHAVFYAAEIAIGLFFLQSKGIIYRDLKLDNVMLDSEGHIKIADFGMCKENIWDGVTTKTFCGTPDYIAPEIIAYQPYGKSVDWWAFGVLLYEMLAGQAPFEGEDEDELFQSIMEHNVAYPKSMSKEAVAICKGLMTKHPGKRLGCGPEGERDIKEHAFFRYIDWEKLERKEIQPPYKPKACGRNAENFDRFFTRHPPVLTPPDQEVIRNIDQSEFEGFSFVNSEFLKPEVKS
PKC delta, sequence (Q05655 whole entry): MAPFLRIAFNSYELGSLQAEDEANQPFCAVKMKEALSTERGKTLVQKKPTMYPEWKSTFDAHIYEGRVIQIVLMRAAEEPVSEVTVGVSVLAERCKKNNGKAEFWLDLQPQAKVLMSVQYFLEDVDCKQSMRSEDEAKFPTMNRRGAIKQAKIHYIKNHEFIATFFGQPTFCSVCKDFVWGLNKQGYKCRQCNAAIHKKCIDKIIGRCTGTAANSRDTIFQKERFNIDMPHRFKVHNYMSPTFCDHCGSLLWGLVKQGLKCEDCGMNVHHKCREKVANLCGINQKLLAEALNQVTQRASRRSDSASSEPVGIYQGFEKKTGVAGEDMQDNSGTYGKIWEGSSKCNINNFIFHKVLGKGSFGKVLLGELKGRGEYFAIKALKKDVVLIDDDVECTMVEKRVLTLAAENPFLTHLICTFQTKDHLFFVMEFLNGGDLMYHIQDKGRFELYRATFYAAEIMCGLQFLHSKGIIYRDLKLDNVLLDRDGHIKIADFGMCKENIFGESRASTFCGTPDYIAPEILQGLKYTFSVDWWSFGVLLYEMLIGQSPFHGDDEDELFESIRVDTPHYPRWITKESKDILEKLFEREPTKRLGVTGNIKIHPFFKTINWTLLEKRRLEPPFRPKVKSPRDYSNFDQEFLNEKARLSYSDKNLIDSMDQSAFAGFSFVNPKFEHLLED
PKC beta 1, sequence (P05771 whole entry): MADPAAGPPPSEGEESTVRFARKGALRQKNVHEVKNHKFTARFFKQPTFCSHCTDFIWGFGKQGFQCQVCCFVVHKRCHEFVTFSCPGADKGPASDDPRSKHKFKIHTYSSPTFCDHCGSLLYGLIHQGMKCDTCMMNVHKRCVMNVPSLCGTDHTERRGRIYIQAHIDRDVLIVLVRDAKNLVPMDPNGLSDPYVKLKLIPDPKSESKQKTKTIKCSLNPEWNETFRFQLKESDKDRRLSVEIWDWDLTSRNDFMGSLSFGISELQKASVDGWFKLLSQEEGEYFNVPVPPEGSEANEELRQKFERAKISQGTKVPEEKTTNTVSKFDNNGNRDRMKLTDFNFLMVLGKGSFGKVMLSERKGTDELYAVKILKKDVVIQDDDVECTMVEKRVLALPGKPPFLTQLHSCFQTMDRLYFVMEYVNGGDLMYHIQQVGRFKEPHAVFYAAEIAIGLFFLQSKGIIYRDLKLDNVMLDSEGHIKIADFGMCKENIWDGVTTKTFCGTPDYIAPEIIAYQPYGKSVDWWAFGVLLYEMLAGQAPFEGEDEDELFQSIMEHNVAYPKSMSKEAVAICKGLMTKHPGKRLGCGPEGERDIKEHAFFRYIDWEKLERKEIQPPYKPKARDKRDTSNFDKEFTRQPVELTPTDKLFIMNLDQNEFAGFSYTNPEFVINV

## CCCCCCCCCCCCCCCC[N+](C)(C)Cc1ccccc1 [CKC, cetalkonium chloride]
PKC alpha
  IC50: 4.29 µM
PKC beta 2
  IC 50 PKC beta 2: *
PKC beta 1
  IC 50 PKC beta 1: *
PKC delta
  IC 50 PKC delta: *
